Results reported in publication PMC12165799, “Antimicrobial peptide developed with machine learning sequence optimization targets drug resistant Staphylococcus aureus in mice” (The Journal of Clinical Investigation, 2025).
Converted amounts (≈) assume the structure as drawn. Read-outs that look alike come from different tables or passages of the source.

What was measured:
[1] = test system: S. aureus MW2 biofilm formation; conditions: 24 hours
Procedure: 349 Prevention of S. aureus MW2 biofilm formation
350 We evaluated the ability of the citropin 1.1-derived peptides to inhibit biofilm formation
351 following an established protocol with modifications (5). In short, we prepared exponential
352 cultures of S. aureus MW2 (adjusted to OD600 = 0.01) in TSB medium (supplemented with 0.2%
353 glucose) from overnight cultures. We added 90 µl of the bacterial culture to 10 µl of serially diluted
354 10× peptide solution in flat-bottomed 96-well polystyrene microtiter plates (Cat no. Corning 3595,
We used TSB medium containing
356 bacteria with water as the positive control, while TSB media with sterile water served as the
357 negative control. After incubation, we carefully removed the TSB medium and washed the wells
358 with PBS (Gibco, MD, USA) to remove loosely attached planktonic cells. We quantified the
359 biomass by staining the biofilms with crystal violet following an established protocol and
360 quantitated the concentration of peptide that inhibits 50% of biofilm formation (MBIC50)(8). We
361 measured the live cell count of the biofilms using XTT dye [2,3-bis(2-methyloxy-4-nitro-5-
362 sulfophenyl)-2H-tertazolium-5-carboxanilide] (ATCC, VA, USA).

S. aureus MW2 membrane = assay: Propidium iodide-based membrane permeability; format: cell-based, Staphylococcus aureus; conditions: S. aureus MW2, 60 minutes
Procedure: 484 min at room temperature in the dark based on a previously established protocol (8). We added 90
485 µl of the dye/bacteria mixture to 10 μl of serially diluted 10× peptide concentration in black, 96-
486 well plates (Cat. no. 3904, Corning, NY, USA) and incubated the plates for 1 hour at room
487 temperature. We measured the fluorescence with excitation and emission wavelengths of 485 nm
488 and 525 nm, respectively in endpoint assay mode using a SpectraMax i3x (Molecular Devices,
489 CA, USA) fluorescence reader.
490 Propidium iodide-based membrane permeability
491 We used a propidium iodide (Thermo Fisher Scientific, MA, USA) fluorescence-based
492 bacterial permeation assay to establish membrane-oriented interactions with the designed peptides
493 based on a previously established protocol (8). We prepared exponential phase S. aureus MW2
494 bacteria and diluted to OD600 = 0.4 in PBS. We added PI dye (final concentration = 2 µM) to the
495 bacteria in 1:10 serial dilutions in black, 96-well plates (Cat. no. 3904, Corning, NY, USA) and
496 incubated the plates for 1 hour at room temperature. We then measured the fluorescence with an
497 excitation wavelength of 584 nm and an emission wavelength of 620 nm in endpoint assay mode
498 using a SpectraMax i3x (Molecular Devices, CA, USA) fluorescence reader.
501 To determine the ATP leakage potential of the peptides, we employed a luciferase-based
502 assay(18). In brief, we washed exponential phase of S. aureus MW2 bacteria three times with PBS
503 (pH 7.4) and adjusted the washed cells to OD600 = 0.4 in PBS. Following treatment of the bacteria
504 with 32 µg/ml of CIT-8 peptide at 37°C for 30 min, we centrifuged the cells at 14,000× g for 5
505 min. We transferred 50 µl of each supernatant fraction to black, clear-bottom, 96-well plates

S. aureus MW2 = assay: Minimal inhibitory concentration (MIC) assay, broth microdilution; format: cell-based, Staphylococcus aureus; conditions: Staphylococcus aureus
Procedure: 300 Synthesis of peptides
302 Piscataway, NJ, USA).
305 Minimal inhibitory concentration (MIC) assay
We made serial dilutions of 10×
We determined the MIC using OD600
Accordingly, we added 150 mM NaCl,
319 established protocol (5).

[2] = test system: VRSA (S. aureus VRS1) biofilm; assay: Biofilm viability assay on solid support (VRS1); format: cell-based, Staphylococcus aureus; conditions: S. aureus VRS1, 10 μg/ml, 24 h in PBS
[3] = test system: MRSA (S. aureus MW2) biofilm; assay: Biofilm viability assay on solid support (MW2); format: cell-based, Staphylococcus aureus; conditions: S. aureus MW2, 10 μg/ml, 24 h in PBS

**Q.** How did the “Biofilm formation, biomass (crystal violet), percentage of untreated” value ([1]; 4 μg/ml, replicate 1) turn out when `CN[C@H](CC(C)C)C(=O)N[C@H]1C(=O)N[C@@H](CC(N)=O)C(=O)N[C@H]2C(=O)N[C@H]3C(=O)N[C@H](C(=O)N[C@H](C(=O)O)c4cc(O)cc(O)c4-c4cc3ccc4O)[C@H](O)c3ccc(c(Cl)c3)Oc3cc2cc(c3O[C@@H]2O[C@H](CO)[C@@H](O)[C@H](O)[C@H]2O[C@H]2C[C@](C)(N)[C@H](O)[C@H](C)O2)Oc2ccc(cc2Cl)[C@H]1O` [Vancomycin, reference compound] was run?
**A.** 8.955

**Q.** What about the “Biofilm formation, live-cell viability (XTT), percentage of untreated” value ([1]; 4 μg/ml, replicate 1) of the same compound?
**A.** -0.6369

**Q.** And the “Biofilm formation, biomass (crystal violet), percentage of untreated” value ([1]; 4 μg/ml, replicate 2)?
**A.** 10.0268

**Q.** And the “Biofilm formation, live-cell viability (XTT), percentage of untreated” value ([1]; 4 μg/ml, replicate 2)?
**A.** -0.3259

**Q.** What about the “Biofilm formation, biomass (crystal violet), percentage of untreated” value ([1]; 4 μg/ml, replicate 3) of the same compound?
**A.** 18.3626

**Q.** What about the “Biofilm formation, live-cell viability (XTT), percentage of untreated” value ([1]; 4 μg/ml, replicate 3) of the same compound?
**A.** -0.3777

**Q.** What about the “Biofilm formation, biomass (crystal violet), percentage of untreated” value ([1]; 8 μg/ml, replicate 1) of the same compound?
**A.** 8.8836

**Q.** What about the “Biofilm formation, live-cell viability (XTT), percentage of untreated” value ([1]; 8 μg/ml, replicate 1) of the same compound?
**A.** -0.674

**Q.** What about the “Biofilm formation, biomass (crystal violet), percentage of untreated” value ([1]; 8 μg/ml, replicate 2) of the same compound?
**A.** 11.1462

**Q.** And the “Biofilm formation, live-cell viability (XTT), percentage of untreated” value ([1]; 8 μg/ml, replicate 2)?
**A.** -0.4592

**Q.** What about the “Biofilm formation, biomass (crystal violet), percentage of untreated” value ([1]; 8 μg/ml, replicate 3) of the same compound?
**A.** 16.9574

**Q.** What about the “Biofilm formation, live-cell viability (XTT), percentage of untreated” value ([1]; 8 μg/ml, replicate 3) of the same compound?
**A.** -0.4518

**Q.** And the “Biofilm formation, biomass (crystal violet), percentage of untreated” value ([1]; 16 μg/ml, replicate 1)?
**A.** 9.955

**Q.** What about the “Biofilm formation, live-cell viability (XTT), percentage of untreated” value ([1]; 16 μg/ml, replicate 1) of the same compound?
**A.** -0.5851

**Q.** And the “Biofilm formation, biomass (crystal violet), percentage of untreated” value ([1]; 16 μg/ml, replicate 2)?
**A.** 11.9559

**Q.** And the “Biofilm formation, live-cell viability (XTT), percentage of untreated” value ([1]; 16 μg/ml, replicate 2)?
**A.** -0.437

**Q.** What about the “Biofilm formation, biomass (crystal violet), percentage of untreated” value ([1]; 16 μg/ml, replicate 3) of the same compound?
**A.** 14.6234

**Q.** What about the “Biofilm formation, live-cell viability (XTT), percentage of untreated” value ([1]; 16 μg/ml, replicate 3) of the same compound?
**A.** -0.4148

**Q.** And the “Biofilm formation, biomass (crystal violet), percentage of untreated” value ([1]; 32 μg/ml, replicate 1)?
**A.** 10.1935

**Q.** What about the “Biofilm formation, live-cell viability (XTT), percentage of untreated” value ([1]; 32 μg/ml, replicate 1) of the same compound?
**A.** -0.4962

**Q.** What about the “Biofilm formation, biomass (crystal violet), percentage of untreated” value ([1]; 32 μg/ml, replicate 2) of the same compound?
**A.** 10.384

**Q.** What about the “Biofilm formation, live-cell viability (XTT), percentage of untreated” value ([1]; 32 μg/ml, replicate 2) of the same compound?
**A.** -0.5555

**Q.** And the “Biofilm formation, biomass (crystal violet), percentage of untreated” value ([1]; 32 μg/ml, replicate 3)?
**A.** 13.4802

**Q.** What about the “Biofilm formation, live-cell viability (XTT), percentage of untreated” value ([1]; 32 μg/ml, replicate 3) of the same compound?
**A.** -0.4073

**Q.** And the “Propidium iodide fluorescence (membrane permeation)” value (S. aureus MW2 membrane)?
**A.** did not induce fluorescence

**Q.** And the MIC (S. aureus MW2; MW2, 18 h, read-out: MIC SA)?
**A.** ≤ 0.125 µg/mL

**Q.** What about the MIC (S. aureus MW2; read-out: MIC + MgSO4 (1 mM), S. aureus MW2, TSB + 1 mM MgSO4) of the same compound?
**A.** ≤ 1 µg/mL

**Q.** And the MIC (S. aureus MW2; read-out: MIC + human serum (10%), S. aureus MW2, TSB + 10% human serum)?
**A.** ≤ 1 µg/mL

**Q.** What about the MIC (S. aureus MW2; S. aureus MW2, TSB + 8 μM ZnSO4, read-out: MIC + ZnSO4 (8 μM)) of the same compound?
**A.** ≤ 1 µg/mL

**Q.** What about the MIC (S. aureus MW2; S. aureus MW2, TSB + 2.5 mM CaCl2, read-out: MIC + CaCl2 (2.5 mM)) of the same compound?
**A.** ≤ 1 µg/mL

**Q.** What about the MIC (S. aureus MW2; S. aureus MW2, TSB + 150 mM NaCl, read-out: MIC + NaCl (150 mM)) of the same compound?
**A.** ≤ 1 µg/mL

**Q.** And the MIC (S. aureus MW2; S. aureus MW2, TSB + 5% human serum, read-out: MIC + human serum (5%))?
**A.** ≤ 1 µg/mL

**Q.** And the MIC (S. aureus MW2; S. aureus MW2, TSB, read-out: MIC, Medium only)?
**A.** 1 µg/mL (≈ 0.69 µM)

**Q.** And the “Bacterial load of 24 hour established biofilm on solid membrane” value (from here on “Bacterial load”) ([2]; replicate 1)?
**A.** 40000000

**Q.** What about the “Bacterial load” value ([2]; replicate 2) of the same compound?
**A.** 40000000

**Q.** What about the “Bacterial load” value ([2]; replicate 3) of the same compound?
**A.** 60000000

**Q.** And the “Bacterial load” value ([2]; replicate 4)?
**A.** 60000000

**Q.** What about the “Bacterial load” value ([2]; replicate 5) of the same compound?
**A.** 20000000

**Q.** What about the “Bacterial load” value ([2]; replicate 6) of the same compound?
**A.** 20000000

**Q.** And the “Bacterial load” value ([3]; replicate 1)?
**A.** 160000000

**Q.** And the “Bacterial load” value ([3]; replicate 2)?
**A.** 18000000

**Q.** And the “Bacterial load” value ([3]; replicate 3)?
**A.** 28000000

**Q.** And the “Bacterial load” value ([3]; replicate 4)?
**A.** 40000000

**Q.** And the “Bacterial load” value ([3]; replicate 5)?
**A.** 20000000

**Q.** What about the “Bacterial load” value ([3]; replicate 6) of the same compound?
**A.** 60000000
